From patent publication US10954232B2, “Pyrazole derivative as ALK5 inhibitor and uses thereof” (HANMI PHARMACEUTICAL CO., LTD., priority 2016, dated 2021)

Biological target: T1, ALK5 kinase (Homo sapiens, UniProt P36897)
T1 construct: GST; purchased Thermo Fisher Scientific Solutions
T1 sequence (P36897 34-503): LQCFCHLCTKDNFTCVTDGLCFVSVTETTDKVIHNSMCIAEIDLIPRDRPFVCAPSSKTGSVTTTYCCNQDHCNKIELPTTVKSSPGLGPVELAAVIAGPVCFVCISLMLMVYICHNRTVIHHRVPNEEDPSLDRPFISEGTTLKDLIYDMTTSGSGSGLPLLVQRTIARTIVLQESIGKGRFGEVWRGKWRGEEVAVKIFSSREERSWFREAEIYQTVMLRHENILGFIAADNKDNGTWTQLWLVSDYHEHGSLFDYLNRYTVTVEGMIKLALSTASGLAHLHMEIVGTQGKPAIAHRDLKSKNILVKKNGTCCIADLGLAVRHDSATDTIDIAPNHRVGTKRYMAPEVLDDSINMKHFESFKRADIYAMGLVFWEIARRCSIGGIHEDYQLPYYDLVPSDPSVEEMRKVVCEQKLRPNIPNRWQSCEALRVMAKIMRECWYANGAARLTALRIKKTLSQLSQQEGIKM
Test: Activity inhibition test on ALK5 enzyme (LanthaScreen Eu binding kinase assay)
Conditions: kinase tracer 178, 60 minutes at room temperature
Procedure, shortened: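 TR-FRET tracer-displacement format with final 5 nM ALK5, 2 nM Eu-GST antibody and 10 nM kinase tracer 178. Compound dilution series ran 1 μM–0.0001 μM, incubated 60 min at room temperature with stirring. Fluorescence was read ([…]), and IC50 came from percent inhibition versus control.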

SMILES | IC50 [nM]
Cc1cccc(-n2nc(C(=O)Nc3ccc4c(c3)OCO4)cc2-c2ccc3nccnc3c2)n1 [Example 168, N-(benzo[d][1,3]dioxol-5-yl)-1-(6-methylpyridin-2-yl)-5-(quinoxalin-6-yl)-1H-pyrazole-3-carboxyamide] | ≤ 100
Cc1cccc(-n2nc(C(=O)Nc3ccc4c(c3)OCCO4)cc2-c2ccc3nccnc3c2)n1 [Example 169, N-(2,3-dihydrobenzo[b][1,4]dioxin-6-yl)-1-(6-methylpyridin-2-yl)-5-(quinoxalin-6-yl)-1H-pyrazole-3-carboxyamide] | 10 to 100
Cc1cccc(-n2nc(C(=O)Nc3ccc(N4CCOCC4)cc3)cc2-c2ccc3nccnc3c2)n1 [Example 171, 1-(6-methylpyridin-2-yl)-N-(4-morpholinophenyl)-5-(quinoxalin-6-yl)-1H-pyrazole-3-carboxyamide] | 10 to 100
Cc1cccc(-n2nc(C(=O)Nc3ccc(N4CCN(C)CC4)cc3)cc2-c2ccc3nccnc3c2)n1 [Example 172, N-(4-(4-methylpiperazin-1-yl)phenyl)-1-(6-methylpyridin-2-yl)-5-(quinoxalin-6-yl)-1H-pyrazole-3-carboxyamide] | 10 to 100
CC(=O)N1CCN(c2ccc(NC(=O)c3cc(-c4ccc5nccnc5c4)n(-c4cccc(C)n4)n3)cc2)CC1 [Example 173, N-(4-(4-acetylpiperazin-1-yl)phenyl)-1-(6-methylpyridin-2-yl)-5-(quinoxalin-6-yl)-1H-pyrazole-3-carboxyamide] | 10 to 100
Cc1cccc(-n2nc(C(=O)Nc3cccc(C#N)c3)cc2-c2ccc3nccnc3c2)n1 [Example 175, N-(3-cyanophenyl)-1-(6-methylpyridin-2-yl)-5-(quinoxalin-6-yl)-1H-pyrazole-3-carboxyamide] | < 100
Cc1cccc(-n2nc(C(=O)Nc3ccc(CN4CCOCC4)cc3)cc2-c2ccc3nccnc3c2)n1 [Example 177, 1-(6-methylpyridin-2-yl)-N-(4-(morpholinomethyl)phenyl)-5-(quinoxalin-6-yl)-1H-pyrazole-3-carboxyamide] | ~100
CC(=O)c1cccc(NC(=O)c2cc(-c3ccc4nccnc4c3)n(-c3cccc(C)n3)n2)c1 [Example 179, N-(3-acetylphenyl)-1-(6-methylpyridin-2-yl)-5-(quinoxalin-6-yl)-1H-pyrazole-3-carboxyamide] | < 100
Cc1cccc(-n2nc(C(=O)Nc3ccc(C(F)(F)F)cc3)cc2-c2ccc3nccnc3c2)n1 [Example 180, 1-(6-methylpyridin-2-yl)-5-(quinoxalin-6-yl)-N-(4-(trifluoromethyl)phenyl)-1H-pyrazole-3-carboxyamide] | 100 to 1000
Cc1cccc(-n2nc(C(=O)Nc3cccc(C(F)(F)F)c3)cc2-c2ccc3nccnc3c2)n1 [Example 181, 1-(6-methylpyridin-2-yl)-5-(quinoxalin-6-yl)-N-(3-(trifluoromethyl)phenyl)-1H-pyrazole-3-carboxyamide] | ~100
CNC(=O)c1ccc(NC(=O)c2cc(-c3ccc4nccnc4c3)n(-c3cccc(C)n3)n2)cc1 [Example 182, N-(4-(methylcarbamoyl)phenyl)-1-(6-methylpyridin-2-yl)-5-(quinoxalin-6-yl)-1H-pyrazole-3-carboxyamide] | < 100

Second part, the compound after the results:

IC50 [nM] | SMILES
10 to 100 | Cc1cccc(-n2nc(C(=O)NCc3ccc(F)cc3)cc2-c2ccc3ncnn3c2)n1 [Example 157, 5-([1,2,4]triazolo[1,5-α]pyridin-6-yl)-N-(4-fluorobenzyl)-1-(6-methylpyridin-2-yl)-1H-pyrazole-3-carboxyamide]
10 to 100 | COc1cccc(CNC(=O)c2cc(-c3ccc4ncnn4c3)n(-c3cccc(C)n3)n2)c1 [Example 158, 5-([1,2,4]triazolo[1,5-α]pyridin-6-yl)-N-(3-methoxybenzyl)-1-(6-methylpyridin-2-yl)-1H-pyrazole-3-carboxyamide]
10 to 100 | COc1ccc(CNC(=O)c2cc(-c3ccc4ncnn4c3)n(-c3cccc(C)n3)n2)cc1 [Example 159, 5-([1,2,4]triazolo[1,5-α]pyridin-6-yl)-N-(4-methoxybenzyl)-1-(6-methylpyridin-2-yl)-1H-pyrazole-3-carboxyamide]
10 to 100 | Cc1cccc(-n2nc(C(=O)NCc3ccc(N(C)C)cc3)cc2-c2ccc3ncnn3c2)n1 [Example 160, 5-([1,2,4]triazolo[1,5-α]pyridin-6-yl)-N-(4-(dimethylamino)benzyl)-1-(6-methylpyridin-2-yl)-1H-pyrazole-3-carboxyamide]
10 to 100 | CC(=O)Nc1ccc(CNC(=O)c2cc(-c3ccc4ncnn4c3)n(-c3cccc(C)n3)n2)cc1 [Example 161, 5-([1,2,4]triazolo[1,5-α]pyridin-6-yl)-N-(4-acetamidobenzyl)-1-(6-methylpyridin-2-yl)-1H-pyrazole-3-carboxyamide]
2 | Cc1cccc(-n2nc(C(=O)Nc3cnn(S(C)(=O)=O)c3)cc2-c2ccc3ncnn3c2)n1 [Example 162, 5-([1,2,4]triazolo[1,5-α]pyridin-6-yl)-1-(6-methylpyridin-2-yl)-N-(1-(methylsulfonyl)-1H-pyrazol-4-yl)-1H-pyrazole-3-carboxyamide]
18 | COc1ccc(NC(=O)c2cc(-c3ccc4nccnc4c3)n(-c3cccc(C)n3)n2)cc1 [Example 164, N-(4-methoxyphenyl)-1-(6-methylpyridin-2-yl)-5-(quinoxalin-6-yl)-1H-pyrazole-3-carboxyamide]
24 | COc1cccc(NC(=O)c2cc(-c3ccc4nccnc4c3)n(-c3cccc(C)n3)n2)c1 [Example 165, N-(3-methoxyphenyl)-1-(6-methylpyridin-2-yl)-5-(quinoxalin-6-yl)-1H-pyrazole-3-carboxyamide]
~100 | COc1ccccc1NC(=O)c1cc(-c2ccc3nccnc3c2)n(-c2cccc(C)n2)n1 [Example 166, N-(2-methoxyphenyl)-1-(6-methylpyridin-2-yl)-5-(quinoxalin-6-yl)-1H-pyrazole-3-carboxyamide]
≤ 100 | COCCOc1ccc(NC(=O)c2cc(-c3ccc4nccnc4c3)n(-c3cccc(C)n3)n2)cc1 [Example 167, N-(4-(2-methoxyethoxy)phenyl)-1-(6-methylpyridin-2-yl)-5-(quinoxalin-6-yl)-1H-pyrazole-3-carboxyamide]
< 100 | Cc1cccc(-n2nc(C(=O)Nc3ccc(N(C)C)cc3)cc2-c2ccc3nccnc3c2)n1 [Example 170, N-(4-(dimethylamino)phenyl)-1-(6-methylpyridin-2-yl)-5-(quinoxalin-6-yl)-1H-pyrazole-3-carboxyamide]
< 100 | Cc1cccc(-n2nc(C(=O)Nc3ccc(C#N)cc3)cc2-c2ccc3nccnc3c2)n1 [Example 174, N-(4-cyanophenyl)-1-(6-methylpyridin-2-yl)-5-(quinoxalin-6-yl)-1H-pyrazole-3-carboxyamide]
10 to 100 | CC(=O)c1ccc(NC(=O)c2cc(-c3ccc4nccnc4c3)n(-c3cccc(C)n3)n2)cc1 [Example 178, N-(4-acetylphenyl)-1-(6-methylpyridin-2-yl)-5-(quinoxalin-6-yl)-1H-pyrazole-3-carboxyamide]
10 to 100 | Cc1cccc(-n2nc(C(=O)Nc3ccc(F)cc3)cc2-c2ccc3nccnc3c2)n1 [Example 183, N-(4-fluorophenyl)-1-(6-methylpyridin-2-yl)-5-(quinoxalin-6-yl)-1H-pyrazole-3-carboxyamide]
